This data set in a line: metabolic stability in liver microsomes (standard microsomal incubation, LC/MS). It counts as in vitro ADME. Particulars: 10 μM compound, 0.2 μM microsomal cytochrome P450, pH 7.4, 37° C, read-out: % Loss (amount of compound that was metabolically degraded). As for the experimental part:
The metabolic stability of the active compounds may be assessed according to the following procedure. A standard microsomal incubation condition is prepared for assessing the rate of metabolism of the active compound in liver microsomes. The microsomal incubation condition comprises 100 mM potassium phosphate buffer (pH 7.4), 10 mM MgCl2, 0.5 mM NADP^+ (nicotinamide adenine dinucleotide phosphate) 4 mM glucose 6 phosphate, 10 unit/mL glucose 6 phosphate dehydrogenase, 0.2 μM microsomal cytochrome P450, and 10 μM active compound. The incubation is started by adding substrate to the reaction mixture that has been preincubated for approximately 3 minutes at 37° C. An aliquot is removed at 0, 1, 2, 5, 10, and 20 minute time points and added to an equal volume of methanol to quench the reaction. The precipitate in the samples is removed by centrifugation and the supernatants are stored at -20° C. The samples are analyzed by standard LC/MS to determine the amount of active compound that has been metabolically degraded.
The compounds illustrated in the chemical formula provided for the Table above were prepared as described in PCT published patent application WO 95/29909, which was published Nov. 9, 1995, entitled "Novel Acyclic And Cyclic Amides As Neurotransmitter Release Enhancers." The compounds illustrated above are pharmaceutically active compounds that enhance the release of neurotransmitters such as acetylcholine, dopamine and serotonin, and therefore are useful for treating Alzheimer's disease, age-associated memory impairment, Parkinson's disease and other central nervous system disorders in mammals, in particular humans. The metabolic stability of the above compounds was assessed according to the procedure described above. The metabolic stability of the above compounds is provided in the above table in the column marked "% Loss" which indicates the amount of compound that was metabolically degraded after 10 minutes in a standard microsomal incubation condition which was prepared as described above.
A general note: Microsomes from liver hold many membrane-bound enzymes, among them those of drug oxidation.
As for `O=C1CC(Cc2ccncc2)(Cc2ccncc2)C(=O)N1C12CC3CC(F)(CC(F)(C3)C1)C2` [F F H], the metabolised at 10 min, 10 µM was found to be 75%. To `O=C1CC(Cc2ccncc2)(Cc2ccncc2)C(=O)N1C12CC3CC(CC(F)(C3)C1)C2` [F H H] belongs 75%; to `O=C1CC(Cc2ccncc2)(Cc2ccncc2)C(=O)N1C12CC3CC(CC(C3)C1)C2` [H H H, reference compound], above 75%; to `O=C1CC(Cc2ccncc2)(Cc2ccncc2)C(=O)N1C12CC3(F)CC(F)(CC(F)(C3)C1)C2` [F F F], 10%.

Source of the values: US6057364A, “Fluoro-substituted adamantane derivatives” (Pfizer Inc, priority 1998, dated 2000).
